Assay results taken from patent US20170333459A1 (priority 2010, published 2017).
“And” between values parts separate entries of the source, which are not always exact repeats. Identical values can stand only once.

What was measured:
[1] = tested on: rabbitpox virus; design: species or system rabbits; details: rabbit, in vivo
[2] = tested on: vaccinia virus; design: species or system human; details: in vivo
[3] = human, in vivo, po
[4] = tested on: variola virus; details: read-out: in vitro potency; cited from earlier work
[5] = biological target: T1, human Organic Anion Transporter 1 (hOAT1) (Homo sapiens, UniProt Q4U2R8)
T1 sequence (Q4U2R8 1-563): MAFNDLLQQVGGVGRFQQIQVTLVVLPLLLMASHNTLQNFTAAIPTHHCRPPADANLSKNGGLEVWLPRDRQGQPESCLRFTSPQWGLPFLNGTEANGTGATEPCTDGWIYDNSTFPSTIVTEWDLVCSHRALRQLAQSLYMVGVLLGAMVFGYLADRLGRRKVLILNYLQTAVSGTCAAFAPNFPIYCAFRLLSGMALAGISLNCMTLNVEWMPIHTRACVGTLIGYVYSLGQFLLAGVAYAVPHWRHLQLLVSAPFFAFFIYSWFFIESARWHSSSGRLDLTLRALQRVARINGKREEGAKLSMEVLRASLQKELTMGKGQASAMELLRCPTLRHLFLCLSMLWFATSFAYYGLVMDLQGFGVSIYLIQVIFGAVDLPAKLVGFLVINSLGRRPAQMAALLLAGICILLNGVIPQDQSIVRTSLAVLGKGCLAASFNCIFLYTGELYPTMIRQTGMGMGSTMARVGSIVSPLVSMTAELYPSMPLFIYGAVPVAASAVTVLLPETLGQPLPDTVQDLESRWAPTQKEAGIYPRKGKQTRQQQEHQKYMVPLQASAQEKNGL

[6] = biological target: T2, hOAT3 (Homo sapiens, UniProt Q8TCC7); details: MDCK
T2 sequence (Q8TCC7 1-542): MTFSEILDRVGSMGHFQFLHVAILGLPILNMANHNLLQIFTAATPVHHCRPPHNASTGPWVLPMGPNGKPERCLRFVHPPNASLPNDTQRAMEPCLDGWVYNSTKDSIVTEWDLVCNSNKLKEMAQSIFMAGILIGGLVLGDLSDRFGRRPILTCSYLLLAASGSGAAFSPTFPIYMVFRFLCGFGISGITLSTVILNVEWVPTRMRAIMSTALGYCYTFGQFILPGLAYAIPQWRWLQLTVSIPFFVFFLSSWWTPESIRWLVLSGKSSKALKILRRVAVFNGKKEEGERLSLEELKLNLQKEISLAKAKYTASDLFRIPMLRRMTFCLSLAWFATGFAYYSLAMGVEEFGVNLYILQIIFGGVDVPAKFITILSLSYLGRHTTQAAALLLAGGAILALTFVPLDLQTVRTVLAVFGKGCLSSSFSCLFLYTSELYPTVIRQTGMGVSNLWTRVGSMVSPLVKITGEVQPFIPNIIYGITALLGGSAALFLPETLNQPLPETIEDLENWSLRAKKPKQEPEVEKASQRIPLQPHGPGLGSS

[7] = tested on: monkeypox virus; details: monkey, in vivo, iv, 20 mg/kg; cited from earlier work
[8] = biological target: T2, hOAT3; design: host or cells: MDCK-II cells, transiently transfected; details: reported for hOAT3-mediated uptake; cited from earlier work
[9] = human, in vivo, po; remark: listed apart in the source

CCCCCCCCCCCCCCCCOCCCOP(=O)(O)CO[C@H](CO)Cn1ccc(N)nc1=O [CMX001, 1-O-hexadecyloxypropyl cidofovir]
effective single dose [1]: 20 mg/kg
preventing mortality [1]: effective in preventing mortality
survivors ([1]; 20 mg/kg): 11/12
clinical outcome of progressive vaccinia [2]: improvement of progressive vaccinia
nephrotoxicity [3]: no signs of nephrotoxicity have been observed
EC50 [4]: 100 nM
effect of 20% serum on uptake ([5]; MDCK): substantially reduced
net uptake in hOAT1 expressing cells ([5]; MDCK): not enhanced
substrate for hOAT1 ([5]; MDCK): not a substrate
Net Transporter Uptake ([5]; human, MDCK): −0.3 ± 5.4 pmol/min/cm^2
net uptake in hOAT3 expressing cells [6]: not enhanced
substrate for hOAT3 [6]: not a substrate

Nc1ccn(C[C@@H](CO)OCP(=O)(O)O)c(=O)n1 [CDV, cidofovir]
survivors [7]: 7/8
lower uptake efficiency (Vmax/Km) [8]: > 100 fold
Uptake (Transporter) ([5]; 5 min): 116 ± 22 pmol/min/cm^2 and 117 ± 15 pmol/min/cm^2
net uptake in hOAT1 expressing cells ([5]; MDCK): enhanced
uptake in the presence of OAT inhibitor probenecid ([5]; MDCK): decreased
net uptake in hOAT3 expressing cells [6]: not enhanced

O=C(NN1C(=O)[C@@H]2[C@@H]3C=C[C@@H]([C@H]4C[C@@H]34)[C@@H]2C1=O)c1ccc(C(F)(F)F)cc1 [ST-246, reference compound]
ST-246 levels [9]: lower
clinical outcome of progressive vaccinia [2]: improvement of progressive vaccinia
